The subject of one test is anti-Lewis Y antibody. The test is described as follows: Negative control: binding to immobilized irrelevant antibody. To be noted: 200 μg/mL biotin. How it is done:
Another negative control was carried out using an irrelevant antibody (anti-Lewis Y antibody from Calbiochem, San Diego Calif.; cat #434636) immobilized in an identical fashion to the anti-biotin antibody above. This immobilized antibody was exposed to a solution of 200 μg/mL biotin.

The test system of test [1] is mouse anti-biotin antibody. The experiment in a line: Small molecule binding to immobilized anti-biotin antibody on NHS-ester activated tip. To be noted: biotin 200 μg/mL, sucrose 2 mg/mL in PBS; FIG. 10.
Protocol: This example illustrates the binding of a low molecular weight molecule binding to an immobilized high molecular weight molecule. […] The tip was rinsed with PBS for 2 minutes. Following the PBS rinse, the tip was quenched with an aqueous solution of 100 μM ethanolamine pH 8.5 (Sigma-Aldrich Chemical Company, St Louis, Mo.; cat #E9508) for 5 minutes and then was rinsed again in PBS for 2 minutes.
Controls using a solution of sucrose (Sigma-Aldrich Chemical Company, St Louis, Mo.; cat #S8501) (2 mg/mL) and PBS were carried out on the second and the third fibers to determine baseline noise.
Test [2] can be described thus: Sequential binding test on biotin-derivatized sensor tip. Conditions: 50 μg/ml in PBS, 9 minutes; FIG. 6. The text has this: The two-layer configuration on the tip of an optic fiber is used for this test. The thickness of the first Ta2O5 layer is 25 nm and the thickness of the second SiO2 layer is 770 nm. The fiber was purchased from Ocean Optics (Dunedin, Fla.). It was manually cut into segments that are 40 mm long. Both ends of these segments were polished to standard mirror surface quality. The polishing method used here was exactly the same as those for optical lenses and mirrors. One surface of these fiber segments was outsourced to an optical coating house for Ta2O5 layer and SiO2 layer. This vendor employed an ion-beam assisted physical vapor deposition (IAPVD) coater made by […] is a commonly used coating technique for anti-reflection and optical filters. The experimental steps included the following (all steps are performed at room temperature unless otherwise noted): The fiber tip was coated with a polymer monolayer derivatized with biotin. The polymer monolayer was prepared using a biotinylated lipid (custom). This lipid was using to form a lipid monolayer on the surface of water solution. The monolayer was cross linked using UV light for 15minutes. Clean, dry fibers were then brought in contact with the floating thin film and the biotin polymer was adsorbed onto the fiber tip. The fibers were then dryed at 60° C. for 1 hour. […]

As to `O=C(O)CCCC[C@@H]1SC[C@@H]2NC(=O)N[C@@H]21` [biotin], in the test on anti-Lewis Y antibody, the “binding to irrelevant antibody” value is “lack of biotin binding”. Further, in test [1], the “change in optical thickness on exposure (binding)” value is “increase in optical thickness”. Consider “streptavidin: streptavidin (Pierce Biotechnology, cat #21122)”, for which the “binding to immobilized biotin (7th order valley phase shift)” value in test [2] was “binding”. Consider `OC[C@H]1O[C@@](CO)(O[C@H]2O[C@H](CO)[C@@H](O)[C@H](O)[C@H]2O)[C@@H](O)[C@@H]1O` [sucrose], for which the “change in optical thickness on exposure (binding)” value in test [1] is listed as “no detectable increase over baseline”.

For the origin of these results see US8305585B2, “Fiber-optic assay apparatus based on phase-shift interferometry” (Pall Corporation, priority 2003, dated 2012).
